The values that follow come from patent US20220040263A1, “COMPANION DIAGNOSTIC FOR COMBINATION LENALIDOMIDE AND ERYTHROPOIETIN TREATMENT” (H. Lee Moffitt Cancer Center and Research Institute, Inc., priority 2016, published 2022).

In one assay the test system is U937 (non-del5q) cells. Put plainly: Apoptosis by Annexin-V/PI flow cytometry in U937 cells. Type of assay: cell-based. Particulars: 24 hours, all concentrations. As for the experimental part: AML-EH5q (FIG. 8A) and U937 (FIG. 8B) cells were exposed to lenalidomide, thalidomide or vehicle at the concentrations indicated for 24 hours in IMDM and 20% FBS and apoptosis assessed by flow cytometry using Annexin-V/PI staining. Briefly, cells are incubated for 20 minutes at room temperature in 50 mM HEPES (pH 7.4) and 150 mM NaCl containing 2 mM calcium chloride with a mixture of 1 μg/mLAnnexin V-FITC (Boehringer Mannhein, Mannhein, Germany) and 2.5 μg/mL propidium iodide (PI; Sigma-Aldrich) before analysis.
The hematologic effects of lenalidomide could derive from dual effects that are karyotype-dependent, i.e., (1) the potentiation of erythropoiesis in non-del5q erythroid precursors, and (2) selective suppression of del5q clones. To confirm that lenalidomide is selectively cytotoxic to del-5q clones, an AML cell line transformed from an MDS patient with isolated 5q31 deletion was cultivated and the cell line successfully maintained in suspension culture with recombinant myeloid growth factor supplementation. This cell line [designated AML-EH5q] is an AML cell line that harbors the isolated 5q-deletion. […] To evaluate the selectivity of lenalidomide cytotoxic for del5q clones, apoptotic response to lenalidomide and thalidomide was compared in AML-EH5q and U937 (non-del5q) cells by flow cytometry. […] Viability was unaffected at all concentrations for both agents in U937 cells.

The test system of a further assay is UT-7 cells. Put plainly: UT7 colony forming assay with or without EPO. It counts as cell-based. As for the experimental part:
FIGS. 1A and 1B show Lenalidomide potentiates clonogenic response to […]. […] Colonies were scored after 14 days incubation and the growth of bone marrow colony-forming unit granulocyte, erythroid, macrophage, megakaryocyte (CFU-GEMM); burst-forming unit-erythroid (BFU-E); and colony-forming unit granulocyte-macrophage (CFU-GM) assessed. […] Cells were then plated in methylcellulose+10% FBS, 2000 cells/well, with or without erythropoietin (EPO). Colonies were scored at day seven.
When UT7 cells were exposed to lenalidomide prior to culture initiation with EPO, supra-additive colony forming capacity was observed that exceeded growth induced by EPO and/or lenalidomide treatments [P=0.001].

For a further assay, the system named is c-Src. Put plainly: c-Src activation (p-Src416, p-Src527, Bcl-XL) in UT7 cells by Western immunoblot. It counts as cell-based. An excerpt:
FIGS. 5A and 5B show lenalidomide potentiates c-Src activation. […] Cells were lysed and assayed for β-actin (Sigma), or Src, p-Src416, p-Src 527 and Bcl-XL (Cell Signaling) by Western immunoblot. Protein loading was normalized to β-actin. Relative Src activation in FIG. 5B represents the ratio of p-Src416 (activation site phosphorylation) to p-Src527 (C-terminal inhibitory p-tyrosine).
To confirm that EPO-R signal potentiation by lenalidomide is associated with activation of Src and Lyn kinases, Src activation was evaluated using phospho-tyrosine specific antibodies that recognize either the activation loop tyrosine (Tyr416) or the C-terminal inhibitory tyrosine (Tyr527) of c-Src. Lenalidomide alone increased phosphorylation of Tyr416 by 50% compared to the vehicle treated control [FIG. 5].

For the next assay, the system named is Csk. As to the kind of experiment: Csk and phospho-Lyn507 in UT7 cells by Western immunoblot. It counts as cell-based. The note with it: lenalidomide alone or combined with EPO. As for the experimental part: Serum starved UT7 cells were treated with either vehicle alone (control), CC5013 (2 hours), EPO (30 minutes), or CC5013 followed by addition of EPO at the concentrations indicated. Cells were lysed and assayed for β-actin (Sigma), phospho-Lyn507, total Lyn and Csk (Cell Signaling) by Western immunoblot as described previously. Protein loading was normalized to β-actin, and immunoblot signals of phosphorylated Lyn were normalized to total Lyn and actin by band densitometry.
The Lyn/Src signal response is inhibited through both Csk phosphorylation of the C-terminal tyrosine residue enabled by SFK phosphorylation of the Csk-binding protein (Csk/Pag), and by the action of the CD45 PTP that dephosphorylatse the SFK activation loop tyrosine. There were minor changes in phosphorylation of the C-terminal tyrosine of Src and Lyn kinases despite significant increases in phosphorylation of the Src activation loop tyrosine [FIGS. 5 and 6]. A minor reduction in C-terminal tyrosyl phosphorylation relative to total Lyn was associated with a decrease in total Csk that was apparent with treatment with either lenalidomide alone or when combined with EPO [FIG. 6].

In assay [1] the test system is lower risk MDS patients who have failed treatment with rhu-EPO. The note with it: cited from earlier work.
Assay [2] deals with LR non-del(5q) MDS patients refractory to, or not candidates for, rhEpo. Put plainly: Randomized phase III trial LEN vs LEN+EA. Type of assay: in vivo, human. From the text:
Treatment with rhu-Epo ameliorates anemia in a subset of LR-MDS patients, however, effective salvage therapy is limited. LEN promotes erythroid lineage competence and expansion of primitive erythroid precursors in vitro. In the MDS-002 and MDS-005 trials, treatment with LEN improved erythropoiesis, yielding RBC transfusion-independence in 26% of azanucleoside-naive, transfusion-dependent (TD) LR, non-del(5q) MDS patients for a median of 10.2 and 7.75 months, respectively. LEN restores Epo-responsiveness in MDS progenitors by inducing the formation of lipid rafts enriched for signaling competent JAK2/Epo-receptor complexes with exclusion of large isoforms of the JAK2/lyn kinase-phosphatase CD45 generated by alternative splicing (McGraw K, et. al. PLoS One 2014). […] To test this hypothesis, randomized phase III trial was performed comparing treatment with LEN to LEN+EA in LR non-del(5q) MDS patients who were refractory to, or not candidates for treatment with rhEpo.
Patients with Low or Intermediate-1 (Int-1) risk IPSS MDS with hemoglobin <9.5 g/dL who were unresponsive to rhEpo treatment or were TD (>2 units/mo) with serum Epo >500 mU/mL were eligible for study. Patients were stratified by serum Epo level and prior rhEpo (EA vs. darbepoetin vs. none) then randomized to treatment with LEN 10 mg/d×21d q4 wk (Arm A) or LEN+EA 60,000 U SC/wk (Arm B). Primary endpoint was IWG 2006 major erythroid response (MER) rate after 4 cycles. Arm A non-responders were offered cross-over to combined therapy. Secondary endpoints included analysis of response biomarkers.

On to `Nc1cccc2c1CN(C1CCC(=O)NC1=O)C2=O` (centres unmarked) [lenalidomide, 3-(4-amino-1-oxo-1,3-dihydro-2H-isoindol-2-yl)piperidine-2,6-dione], for which the viability / apoptosis result in the assay with U937 (non-del5q) cells is recorded as “unaffected”. The colony forming capacity entry in the assay with UT-7 cells (UT7 cells exposed to lenalidomide prior to culture initiation with EPO, P=0.001) is “supra-additive”; in the assay on UT-7 cells (lenalidomide 1 μM alone, UT7 cells), “minimal effect”. Moreover, in the assay with c-Src (lenalidomide alone), the “increase in phosphorylation of Src Tyr416 compared to the vehicle treated control” value came out at 50%. Besides, in the assay on c-Src (lenalidomide combined with EPO, supra-additive), the “Src activation compared to the vehicle control” value is around 3 fold. Besides, the “EPO-dependent induction of Bcl-XL” value in the assay with c-Src (lenalidomide pre-treatment) is recorded as “augmented”. Further, the “total Csk” value in the assay with Csk is “decrease”. In assay [1] (del5q patients), the cytogenetic response is 74%. In assay [1] (del5q patients), the transfusion-independence is 67%. The erythroid response in assay [1] (patients with chromosome 5q31 interstitial deletion (del5q)) was 76%. Moreover, the MER rate in assay [1] (patients with normal or alternate karyotypes) is 25-30%. For the same compound, the “MER rate among patients evaluable at week 16” value in assay [2] (116 evaluable patients, P=0.018) came to 14.3%. Moreover, the “major erythroid response (MER) rate, ITT analysis” value in assay [2] (IWG 2006 MER, interim analysis of 163 patients, P=0.015) came out at 9.9%. Moreover, the “median duration of response” value in assay [2] (MER responders) is reported as “not reached”.
